Legend:
Hepatitis C virus [1] = test: Antiviral activity against Hepatitis C virus subtype 1b infected in Huh-7 cells transfected with HCV subgenomic replicon for NS5B polymerase assessed as inhibition of viral replication measured upto 96 hrs by luciferase reporter gene assay; type: functional, organism-based, Hepacivirus hominis
Hepatitis C virus [2] = test: Antiviral activity against Hepatitis C virus subtype 1b infected in Huh-7 cells transfected with HCV subgenomic replicon for NS5B polymerase assessed as inhibition of viral replication measured upto 96 hrs in presence of 40% of human serum by luciferase reporter gene assay; type: functional, organism-based, Hepacivirus hominis; details: Huh-7, 96 h
[3] = Cytotoxicity against human Huh-7 cells transfected with HCV subgenomic replicon for NS5B polymerase assessed as reduction in cell viability; type: toxicity, cell-based
[4] = Protein binding in rat plasma at 1 uM incubated for 6 hrs by LC-MS/MS based rapid equilibrium dialysis method; type: ADME, cell-free; details: read-out: PPB (converted)
[5] = AUC (0 to infinity) in Sprague-Dawley rat at 1 mg/kg,iv and measured after 72 hrs by LC/MS/MS analysis; type: ADME, organism-based; parameters: time 72 hrs, dose 1 mg/kg, route iv; details: Sprague-Dawley, in vivo
[6] = Unbound AUC (0 to infinity) in Sprague-Dawley rat at 1 mg/kg,iv and measured after 72 hrs by LC/MS/MS analysis; type: ADME, organism-based; details: in vivo
[7] = Clearance in Sprague-Dawley rat at 1 mg/kg,iv and measured after 72 hrs by LC/MS/MS analysis; type: ADME, organism-based; details: in vivo
[8] = Unbound clearance in Sprague-Dawley rat at 1 mg/kg,iv and measured after 72 hrs by LC/MS/MS analysis; type: ADME, organism-based; details: in vivo
[9] = Half life in Sprague-Dawley rat at 1 mg/kg,iv and measured after 72 hrs by LC/MS/MS analysis; type: ADME, organism-based; details: in vivo
[10] = Volume of distribution at steady state in Sprague-Dawley rat at 1 mg/kg,iv and measured after 72 hrs by LC/MS/MS analysis; type: ADME, organism-based; details: in vivo, read-out: Vdss
[11] = AUC (0 to infinity) in Sprague-Dawley rat at 3 mg/kg,po and measured after 72 hrs by LC/MS/MS analysis; type: ADME, organism-based; parameters: time 72 hrs, dose 3 mg/kg, route po; details: in vivo
[12] = Unbound AUC (0 to infinity) in Sprague-Dawley rat at 3 mg/kg,po and measured after 72 hrs by LC/MS/MS analysis; type: ADME, organism-based; details: in vivo
[13] = Cmax in Sprague-Dawley rat at 3 mg/kg,po and measured after 72 hrs by LC/MS/MS analysis; type: ADME, organism-based; parameters: time 72 hrs, dose 3 mg/kg, route po; details: in vivo
[14] = Oral bioavailability in Sprague-Dawley rat at 3 mg/kg and measured after 72 hrs by LC/MS/MS analysis; type: ADME, organism-based; details: in vivo
[15] = Half life in Sprague-Dawley rat at 3 mg/kg,po and measured after 72 hrs by LC/MS/MS analysis; type: ADME, organism-based; details: in vivo
[16] = Microsomal stability in rat liver microsomes assessed as parent compound remaining at 1 uM and measured after 30 mins in presence of NADPH by LC/MS/MS analysis; type: ADME, Microsome; details: 0.5 h
[17] = Microsomal stability in human liver microsomes assessed as parent compound remaining at 1 uM and measured after 30 mins in presence of NADPH by LC/MS/MS analysis; type: ADME, Microsome; details: 0.5 h
Cytochrome P450 3A4 = Cytochrome P450 3A4 (Homo sapiens, UniProt P08684); test: Inhibition of CYP3A4 in human liver microsomes incubated for 10 mins in presence of NADPH by LC/MS/MS analysis; type: ADME, Microsome
Sequence of Cytochrome P450 3A4 (P08684 whole entry): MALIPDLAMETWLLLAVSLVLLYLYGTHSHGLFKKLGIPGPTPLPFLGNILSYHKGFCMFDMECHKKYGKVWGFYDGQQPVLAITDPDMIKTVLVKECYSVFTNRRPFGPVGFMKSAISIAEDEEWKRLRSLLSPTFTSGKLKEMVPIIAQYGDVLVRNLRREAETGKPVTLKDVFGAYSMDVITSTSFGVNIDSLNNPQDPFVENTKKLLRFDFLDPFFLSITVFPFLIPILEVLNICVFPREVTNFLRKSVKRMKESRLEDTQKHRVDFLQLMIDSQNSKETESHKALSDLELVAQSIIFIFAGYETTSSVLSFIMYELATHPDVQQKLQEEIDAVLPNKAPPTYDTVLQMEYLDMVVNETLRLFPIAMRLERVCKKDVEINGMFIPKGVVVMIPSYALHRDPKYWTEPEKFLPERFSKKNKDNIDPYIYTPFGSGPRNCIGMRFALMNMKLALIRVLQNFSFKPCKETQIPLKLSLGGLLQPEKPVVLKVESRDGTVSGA

Cytochrome P450 2D6 = Cytochrome P450 2D6 (Homo sapiens, UniProt P10635); test: Inhibition of CYP2D6 in human liver microsomes incubated for 10 mins in presence of NADPH by LC/MS/MS analysis; type: ADME, Microsome
Sequence of Cytochrome P450 2D6 (P10635 whole entry): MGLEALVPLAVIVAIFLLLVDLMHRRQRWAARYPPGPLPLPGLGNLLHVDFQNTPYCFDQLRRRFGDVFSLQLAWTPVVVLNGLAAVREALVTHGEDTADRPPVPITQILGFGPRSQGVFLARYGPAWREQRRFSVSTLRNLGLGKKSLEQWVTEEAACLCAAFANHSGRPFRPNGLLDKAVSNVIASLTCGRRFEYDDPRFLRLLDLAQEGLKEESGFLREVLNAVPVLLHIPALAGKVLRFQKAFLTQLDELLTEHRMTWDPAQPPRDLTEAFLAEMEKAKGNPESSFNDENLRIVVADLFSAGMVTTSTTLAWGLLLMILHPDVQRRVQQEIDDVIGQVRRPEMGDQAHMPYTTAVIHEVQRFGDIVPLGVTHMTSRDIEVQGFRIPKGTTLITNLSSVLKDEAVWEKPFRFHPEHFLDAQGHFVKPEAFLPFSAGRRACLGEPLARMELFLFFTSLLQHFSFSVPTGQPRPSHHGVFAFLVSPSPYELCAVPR

Cytochrome P450 2C9 = Cytochrome P450 2C9 (Homo sapiens, UniProt P11712); test: Inhibition of CYP2C9 in human liver microsomes incubated for 10 mins in presence of NADPH by LC/MS/MS analysis; type: ADME, Microsome
Sequence of Cytochrome P450 2C9 (P11712 whole entry): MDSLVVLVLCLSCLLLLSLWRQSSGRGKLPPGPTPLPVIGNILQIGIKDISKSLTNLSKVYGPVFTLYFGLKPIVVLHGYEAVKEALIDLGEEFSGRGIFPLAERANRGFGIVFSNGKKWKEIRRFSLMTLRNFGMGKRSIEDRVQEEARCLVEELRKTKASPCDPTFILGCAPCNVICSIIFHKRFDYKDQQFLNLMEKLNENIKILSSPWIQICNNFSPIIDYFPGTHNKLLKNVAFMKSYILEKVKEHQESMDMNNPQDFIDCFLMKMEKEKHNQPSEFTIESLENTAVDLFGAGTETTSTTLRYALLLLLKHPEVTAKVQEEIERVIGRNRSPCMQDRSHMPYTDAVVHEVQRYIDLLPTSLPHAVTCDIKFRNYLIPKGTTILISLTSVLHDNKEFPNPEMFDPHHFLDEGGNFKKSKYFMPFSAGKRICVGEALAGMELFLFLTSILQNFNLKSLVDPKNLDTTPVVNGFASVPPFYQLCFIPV

[18] = biological target: T1, Nuclear receptor subfamily 1 group I member 2 (Homo sapiens, UniProt O75469); test: Activation of human PXR expressed in human DPX2 co-expressing luciferase reporter gene incubated for 24 hrs by luciferase assay; type: cell-based
T1 sequence (O75469 whole entry): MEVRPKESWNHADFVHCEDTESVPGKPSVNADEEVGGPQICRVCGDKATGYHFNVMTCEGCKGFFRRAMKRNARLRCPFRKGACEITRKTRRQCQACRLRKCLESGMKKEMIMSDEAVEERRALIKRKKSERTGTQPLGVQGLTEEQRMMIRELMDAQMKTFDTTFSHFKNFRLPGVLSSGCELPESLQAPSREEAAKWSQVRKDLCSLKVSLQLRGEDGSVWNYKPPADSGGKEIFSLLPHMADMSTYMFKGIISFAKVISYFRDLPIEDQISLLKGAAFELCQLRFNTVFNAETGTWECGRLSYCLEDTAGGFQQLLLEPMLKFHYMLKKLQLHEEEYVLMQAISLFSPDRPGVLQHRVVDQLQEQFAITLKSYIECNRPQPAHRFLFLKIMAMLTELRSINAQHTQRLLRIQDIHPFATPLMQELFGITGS

PXR = biological target: T2, PXR (Homo sapiens, UniProt O75469); test: Activation of human PXR expressed in human DPX2 co-expressing luciferase reporter gene assessed as maximum efficacy incubated for 24 hrs by luciferase assay relative to control; type: cell-based; details: DPX2 cells expressing human PXR and luciferase reporter gene
T2 sequence (O75469 whole entry): T1 sequence (O75469 whole entry)

[19] = AUC (0 to infinity) in Sinclair Lab dog at 1 mg/kg,iv and measured after 72 hrs by LC/MS/MS analysis; type: ADME, organism-based, Canis lupus familiaris; parameters: time 72 hrs, dose 1 mg/kg, route iv; details: in vivo
[20] = Unbound AUC (0 to infinity) in Sinclair Lab dog at 1 mg/kg,iv and measured after 72 hrs by LC/MS/MS analysis; type: ADME, organism-based, Canis lupus familiaris; details: in vivo
[21] = Clearance in Sinclair Lab dog at 1 mg/kg,iv and measured after 72 hrs by LC/MS/MS analysis; type: ADME, organism-based, Canis lupus familiaris; details: in vivo
[22] = Unbound clearance in Sinclair Lab dog at 1 mg/kg,iv and measured after 72 hrs by LC/MS/MS analysis; type: ADME, organism-based, Canis lupus familiaris; details: in vivo
[23] = Half life in Sinclair Lab dog at 1 mg/kg,iv and measured after 72 hrs by LC/MS/MS analysis; type: ADME, organism-based, Canis lupus familiaris; details: in vivo
[24] = Volume of distribution at steady state in Sinclair Lab dog at 1 mg/kg,iv and measured after 72 hrs by LC/MS/MS analysis; type: ADME, organism-based, Canis lupus familiaris; details: in vivo, read-out: Vdss
[25] = AUC (0 to infinity) in Cynomolgus monkey at 1 mg/kg,iv and measured after 72 hrs by LC/MS/MS analysis; type: ADME, organism-based, Macaca fascicularis; parameters: dose 1 mg/kg, time 72 hrs, route iv; details: in vivo
[26] = Unbound AUC (0 to infinity) in Cynomolgus monkey at 1 mg/kg,iv and measured after 72 hrs by LC/MS/MS analysis; type: ADME, organism-based, Macaca fascicularis; details: in vivo
[27] = Clearance in Cynomolgus monkey at 1 mg/kg,iv and measured after 72 hrs by LC/MS/MS analysis; type: ADME, organism-based, Macaca fascicularis; details: in vivo
[28] = Unbound clearance in Cynomolgus monkey at 1 mg/kg,iv and measured after 72 hrs by LC/MS/MS analysis; type: ADME, organism-based, Macaca fascicularis; details: in vivo
[29] = Half life in Cynomolgus monkey at 1 mg/kg,iv and measured after 72 hrs by LC/MS/MS analysis; type: ADME, organism-based, Macaca fascicularis; details: in vivo
[30] = Volume of distribution at steady state in Cynomolgus monkey at 1 mg/kg,iv and measured after 72 hrs by LC/MS/MS analysis; type: ADME, organism-based, Macaca fascicularis; details: in vivo, read-out: Vdss
[31] = Drug uptake in human hepatocytes at 37 degree C for 15 mins by LC/MS/MS analysis; type: ADME, cell-based, Hepatocyte; details: 0.25 h
[32] = Drug uptake in human hepatocytes at 4 degree C for 15 mins by LC/MS/MS analysis; type: ADME, cell-based, Hepatocyte; details: 0.25 h
[33] = Drug excretion in bile-duct cannulated Sprague-Dawley rat assessed as bile elimination at 15 mg/kg,po and measured after 72 hrs by LC/MS/MS analysis; type: ADME, organism-based; details: in vivo
[34] = Drug distribution in Sprague-Dawley rat liver at 10 mg/kg,po and measured upto 24 hrs by LC/MS/MS analysis; type: ADME, organism-based; details: in vivo
[35] = Drug distribution in Sprague-Dawley rat plasma at 10 mg/kg,po and measured upto 24 hrs by LC/MS/MS analysis; type: ADME, organism-based; details: in vivo

## CN1CCCC[C@H](N(c2cc(C#CC(C)(C)C)sc2C(=O)O)C(=O)[C@H]2CC[C@H](C)CC2)C1=O
Hepatitis C virus [1]; Huh-7, 96 h
  IC50: 4 nM
Hepatitis C virus [1]; Huh-7, time <= 96 hrs
  IC90: 12 nM
Hepatitis C virus [2]
  IC50: 23 nM
[3]
  CC50: > 20000 nM
[4]
  fraction unbound at 6 h, 1 µM: 0.008
[5]
  AUC(0-inf): 1480 ng·h/mL
[6]
  fAUC: 11.8 ng·h/mL
[7]
  clearance: 16.1 mL/min/kg
[8]
  CL free: 2010 mL/min/kg
[9]
  half-life: 2.12 h
[10]
  Vd: 1.95 L/kg
[11]
  AUC(0-inf): 3820 ng·h/mL
[12]
  fAUC: 30.6 ng·h/mL
[13]
  Cmax: 1040 ng/mL
[14]
  bioavailability: 97%
[15]
  half-life: 2.91 h
[16]
  Stability: Stable
[17]
  Stability: Stable
Cytochrome P450 3A4
  IC50: > 30000 nM
Cytochrome P450 2D6
  IC50: > 30000 nM
Cytochrome P450 2C9
  IC50: > 30000 nM
[18]
  EC50: > 30000 nM
PXR
  Emax at 24 h: 10%
[19]
  AUC(0-inf): 1450 ng·h/mL
[20]
  fAUC: 10.1 ng·h/mL
[21]
  clearance: 15 mL/min/kg
[22]
  CL free: 2140 mL/min/kg
[23]
  half-life: 1.39 h
[24]
  Vd: 1.59 L/kg
[25]
  AUC(0-inf): 443 ng·h/mL
[26]
  fAUC: 4.43 ng·h/mL
[27]
  clearance: 33.5 mL/min/kg
[28]
  CL free: 3350 mL/min/kg
[29]
  half-life: 5.44 h
[30]
  Vd: 5.27 L/kg
[31]
  Drug uptake: Active
[32]
  Drug uptake: Active
[33]
  Drug excretion: Active
[34]
  Drug uptake: Active
[35]
  Drug uptake: Active

From ChEMBL document CHEMBL5260802, “Discovery of Novel Allosteric HCV NS5B Inhibitors. 2. Lactam-Containing Thiophene Carboxylates” (ACS Med Chem Lett, 2017)
